Data: the OPERA property sets (Mansouri et al. 2018)

Conditions: not given

In the case of Oc1cccnc1, the ready biodegradability is reported as “readily biodegradable”.
For COc1cc(C=O)cc(OC)c1O, the ready biodegradability was “readily biodegradable”.
In the case of C=COC(C)=O, the ready biodegradability is reported as “readily biodegradable”.
In the case of CCCCCCCCCCCCCC, the ready biodegradability is reported as “readily biodegradable”.
In the case of N#CC(c1ccccc1)c1ccccc1, the ready biodegradability is reported as “not readily biodegradable”.
In the case of C=C(C)C(=O)OCC(C)O (stereo unspecified), the ready biodegradability is reported as “readily biodegradable”.
In the case of COC(C)CCO (stereo unspecified), the ready biodegradability is reported as “readily biodegradable”.
In the case of O=C(O)C(F)(F)C(F)(F)C(F)(F)C(F)(F)C(F)(F)C(F)(F)C(F)(F)F, the ready biodegradability is reported as “not readily biodegradable”.
With CCOCCOCCOC(C)=O the ready biodegradability was “readily biodegradable”.
For CC(O)CN(CCN(CC(C)O)CC(C)O)CC(C)O (stereo unspecified), the ready biodegradability was “not readily biodegradable”.
With CCCCCCCCCCOCCCCCCCCCC the ready biodegradability was “readily biodegradable”.
For CCCCCCCCCCCCCCCCO, the ready biodegradability was “readily biodegradable”.
For ClC=C(Cl)Cl, the ready biodegradability was “not readily biodegradable”.
For Nc1cccc(S(=O)(=O)c2cccc(N)c2)c1, the ready biodegradability was “not readily biodegradable”.
In the case of OCC1CC23CCC1(CC2)CC3CO (stereo unspecified), the ready biodegradability is reported as “not readily biodegradable”.
For CCCCCCCCCCCCCCCCCCCCCC, the ready biodegradability was “readily biodegradable”.

Point of comparison: CCCCCCCCCCCCCCCCCC(=O)OCCCCC, melting point 30 °C. Against it:
- COc1cc(C=O)cc(OC)c1O — higher, 113 °C
- C=COC(C)=O — lower, -93.2 °C
- CCCCCCCCCCCCCC — lower, 5.8 °C
- Cc1cccc2cc3ccc4ccccc4c3cc12 — higher, 118 °C
- Cc1cccc(Br)c1 — lower, -39.8 °C
- N#CC(c1ccccc1)c1ccccc1 — higher, 74.3 °C
- CC(C)C1=CC[C@H]2C(=C1)CC[C@@H]1[C@]2(C)CCC[C@@]1(C)C(=O)O — higher, 150 °C
- COC(=O)c1ccccc1S(=O)(=O)NC(=O)Nc1nc(OC(F)F)cc(OC(F)F)n1 — higher, 196 °C
- FC(F)C(F)F — lower, -89 °C
- CC(C)(C)SC(C)(C)C — lower, -9 °C
- OC[C@@H]1CCCN2CCCC[C@H]12 — higher, 70 °C
- Cc1cccnn1 — higher, 184 °C
- Cc1ccc(C)c(Br)c1 — lower, 9 °C
- CCCCOC(=O)C(=O)OCCCC — lower, -30.5 °C
- O=C(Nc1ccc(Cl)cc1)c1cc(Br)ccc1O — higher, 240 °C
- CCN(CC)C(=O)SCc1ccccc1Cl — lower, 9 °C
- CCCCCCCCCCCCCBr — lower, 6.2 °C
- O=C(c1cc(O)c(O)c(O)c1)c1ccc(O)c(O)c1O — higher, 270 °C
- CCCCCCCOO — higher, 35.5 °C
- CCCCCCCCCCCCCCCC(=O)OCCOC(=O)CCCCCCCCCCCCCCC — higher, 72 °C
- CCCCCCC(=O)OC — lower, -56 °C
- CCCCCCCCCCCCC(C)=O — higher, 33.5 °C
- O=C(O)C(F)(F)C(F)(F)C(F)(F)C(F)(F)C(F)(F)C(F)(F)C(F)(F)F — higher, 55 °C
- C=C(C)Cn1c(N)cc(=O)n(C)c1=O — higher, 175 °C
- CCOCCOCCOC(C)=O — lower, -25 °C
- O=C(C=Cc1ccccc1)NCCO — higher, 101 °C
- O=Cc1ccc(O)cc1O — higher, 135 °C
- COc1ncnc(NS(=O)(=O)c2ccc(N)cc2)c1OC — higher, 192 °C
- FC1CCCCC1 — lower, 13 °C
- CCC(=O)c1ccc2ccccc2c1 — higher, 60 °C
- Cc1cccc(C)c1NC(=O)c1ccc[nH]c1=O — higher, 266 °C
- Cc1ccc(S(=O)(=O)F)cc1 — higher, 41.5 °C
- Clc1cccc2c(Cl)cccc12 — higher, 107 °C
- ClCCC(Cl)Cl — lower, -59 °C
- CCC=Cc1ccccc1 — lower, -43.1 °C
- CCCCCCCCC(CCCCCCCC)C(=O)O — higher, 38.5 °C
- Brc1ccc2c(c1)Oc1ccccc1O2 — higher, 90 °C
- CC1(c2ccccc2)CCOCO1 (stereo unspecified) — higher, 37.5 °C
- CCCCCCCCCCCCCCCCCCCCCCCC(=O)O — higher, 84.2 °C
- C=CF — lower, -160 °C
- CCCCC(=O)OCC — lower, -91.2 °C
- COc1cc(C(=O)OCCCN(C)CCN(C)CCCOC(=O)c2cc(OC)c(OC)c(OC)c2)cc(OC)c1OC — higher, 76 °C
- Cc1ccc(C(=O)N(C)C)cc1 — higher, 41 °C
- Nc1ccc(Sc2ccc([N+](=O)[O-])cc2)cc1 — higher, 144 °C
- COc1ccc(C(=O)O)cc1O — higher, 252 °C
- ClC(Cl)=C(Cl)C(Cl)(Cl)Cl — lower, -72.9 °C
- Cc1ccccc1N.Cl — higher, 215 °C
- CCCCCCCCCCCCCCCCO — higher, 49.3 °C
- CC1CC(=O)C(C)(C)C1 (stereo unspecified) — lower, -40.6 °C
- COc1ccc(-c2cc(=O)c3c(O)cc(O)cc3o2)cc1O — higher, 254 °C
- C=CC=CC#N — lower, -60 °C
- ClC=C(Cl)Cl — lower, -84.7 °C
- N[C@@H](Cc1cc(I)c(O)c(I)c1)C(=O)O — higher, 213 °C
- CCC1CCC(C)CC1 (stereo unspecified) — lower, -80.8 °C
- C=CCCCCCCCCCCCCCCCCCC — lower, 28.5 °C
- N#Cc1ccccc1Br — higher, 55.5 °C
- Fc1cc(F)c(F)c(F)c1F — lower, -47.3 °C
- CC[SiH2]CC — lower, -134 °C
- COc1ccc(C(=NCc2ccccc2)c2ccc(OC)cc2)cc1 — higher, 90 °C
- Cc1ccc(Br)cc1 — lower, 28.5 °C
- CN/C(=N\C#N)NCCSCc1nc[nH]c1C — higher, 142 °C
- S=C(c1ccccc1)c1ccccc1 — higher, 53.5 °C
- COc1cc(OC)nc(N=C(O)NS(=O)(=O)N(C)S(C)(=O)=O)n1 — higher, 162 °C
- CCCCCCOC=O — lower, -62.6 °C
- O=CC=Cc1ccccc1 — lower, -7.5 °C
- O=C(O)Cc1ccc(O)cc1 — higher, 152 °C
- O[C@H]1CC[C@H](O)CC1 — higher, 143 °C
- CC/C(=C(/CC)c1ccc(OC)cc1)c1ccc(OC)cc1 — higher, 124 °C
- O=C1c2cc([N+](=O)[O-])ccc2-c2ccc([N+](=O)[O-])cc21 — higher, 294 °C
- ON=C(C(=NO)c1ccco1)c1ccco1 — higher, 167 °C
- O=C1CCCC(=O)O1 — higher, 56.3 °C
- Nc1cccc(S(=O)(=O)c2cccc(N)c2)c1 — higher, 172 °C
- O=c1cc[nH]c2ccccc12 — higher, 201 °C
- CCCCCCCCCCCCCCCCCCCCCC — higher, 44.4 °C
- O=[N+]([O-])c1cc(C2CCCCC2)c(O)c([N+](=O)[O-])c1 — higher, 107 °C

Point of comparison: ClCCCOCCCCl, boiling point 216 °C. Against it:
- CC(CCCl)OCCCl (stereo unspecified) — lower, 195 °C
- C=COC(C)=O — lower, 72.5 °C
- CCCCCCCCCCCCCC — higher, 254 °C
- Cc1cccc(Br)c1 — lower, 184 °C
- FC(F)C(F)F — lower, -19.9 °C
- CC(C)(C)SC(C)(C)C — lower, 149 °C
- OC[C@@H]1CCCN2CCCC[C@H]12 — higher, 270 °C
- Cc1cccnn1 — lower, 214 °C
- Cc1ccc(C)c(Br)c1 — lower, 199 °C
- CCCCOC(=O)C(=O)OCCCC — higher, 241 °C
- C=C=C(C)CC — lower, 70 °C
- O=S(=O)(O)C(F)(F)C(F)(F)C(F)(F)C(F)(F)C(F)(F)C(F)(F)F — higher, 238 °C
- CCCCCCCCCCCCCBr — higher, 296 °C
- CCCCCCC(C(=O)OCC)C(=O)OCC — higher, 269 °C
- COC(C)CCO (stereo unspecified) — lower, 157 °C
- CCCCCCC(=O)OC — lower, 174 °C
- O=C(O)C(F)(F)C(F)(F)C(F)(F)C(F)(F)C(F)(F)C(F)(F)C(F)(F)F — lower, 189 °C
- CCOCCOCCOC(C)=O — higher, 218 °C
- C=CCOC=O — lower, 83.6 °C
- FC1CCCCC1 — lower, 101 °C
- CCCCCCO[N+](=O)[O-] — lower, 171 °C
- CCC(=O)c1ccc2ccccc2c1 — higher, 313 °C
- ClCCC(Cl)Cl — lower, 146 °C
- CCC=Cc1ccccc1 — lower, 199 °C
- CC1(c2ccccc2)CCOCO1 (stereo unspecified) — higher, 256 °C
- C=CF — lower, -72 °C
- CCCCC(=O)OCC — lower, 146 °C
- CC(C)CCCBr — lower, 145 °C
- ClC(Cl)=C(Cl)C(Cl)(Cl)Cl — lower, 210 °C
- CCCCC(C)C(C)O (stereo unspecified) — lower, 166 °C
- Cc1ccccc1N.Cl — higher, 242 °C
- CCCCCCCCCCCCCCCCO — higher, 334 °C
- CC1CC(=O)C(C)(C)C1 (stereo unspecified) — lower, 158 °C
- C=CCCO — lower, 114 °C
- FC(F)(Br)C(F)(F)C(F)(F)C(F)(F)C(F)(F)C(F)(F)Br — lower, 142 °C
- C=CC=CC#N — lower, 136 °C
- ClC=C(Cl)Cl — lower, 87.2 °C
- CCC1CCC(C)CC1 (stereo unspecified) — lower, 151 °C
- C=CCCCCCCCCCCCCCCCCCC — higher, 341 °C
- N#Cc1ccccc1Br — higher, 252 °C
- Fc1cc(F)c(F)c(F)c1F — lower, 85.7 °C
- CC[SiH2]CC — lower, 57 °C
- Cc1ccc(Br)cc1 — lower, 184 °C
- CCC(C)(CC)C(=O)O — lower, 207 °C
- CCCCCCOC=O — lower, 156 °C
- O=CC=Cc1ccccc1 — higher, 246 °C
- CCCC(C)(CC)C(C)C (stereo unspecified) — lower, 166 °C
- CCC(Br)(Br)CBr — lower, 214 °C
- O=C1CCCC(=O)O1 — higher, 287 °C
- CCCCCCCCCCCCCCCCCCCCCC — higher, 369 °C

Point of comparison: CCCCCCCCCCCCCCCCCCCCCC, log10 vapour pressure (mmHg) -5.89. Against it:
- C=COC(C)=O — higher, 1.96
- CCCCCCCCCCCCCC — higher, -1.94
- Cc1cccc(Br)c1 — higher, 0.185
- CCN(CC)C(=O)SCc1ccccc1Cl — higher, -4.03
- CCCCCCCCCCCCCBr — higher, -2.87
- O=C(O)C(F)(F)C(F)(F)C(F)(F)C(F)(F)C(F)(F)C(F)(F)C(F)(F)F — higher, -0.28
- CCOCCOCCOC(C)=O — higher, -1
- CCCCCCO[N+](=O)[O-] — higher, 0.199
- Brc1ccc2c(c1)Oc1ccccc1O2 — higher, -4.52
- C=CF — higher, 4.3
- CCCCC(=O)OCC — higher, 0.681
- ClC(Cl)=C(Cl)C(Cl)(Cl)Cl — higher, -0.613
- CCCCCCCCCCCCCCCCO — higher, -5.22
- ClC=C(Cl)Cl — higher, 1.84
- C=CCCCCCCCCCCCCCCCCCC — higher, -4.98
- Fc1cc(F)c(F)c(F)c1F — higher, 1.83
- Cc1ccc(Br)cc1 — higher, 0.0607
- COc1cc(OC)nc(N=C(O)NS(=O)(=O)N(C)S(C)(=O)=O)n1 — lower, -6.78
- O=CC=Cc1ccccc1 — higher, -1.54
- O=C1CCCC(=O)O1 — higher, -2.52

Point of comparison: CCCCCCCCCCCCCCCCCCCCCC, log10 biodegradation half-life (days) 2.1. Against it:
- CCCCCCCCCCCCCC — lower, 1.36

Point of comparison: ClC=C(Cl)Cl, log10 Koc (L/kg) 2. Against it:
- COC(=O)c1ccccc1S(=O)(=O)NC(=O)Nc1nc(OC(F)F)cc(OC(F)F)n1 — lower, 1.08
- CCCCC(=O)OCC — within 0.2 log units, 1.97
- Clc1ccc(Cl)c(-c2c(Cl)ccc(Cl)c2Cl)c1Cl — higher, 6.01
- CCOC(=O)c1ccccc1S(=O)(=O)NC(=O)Nc1nc(Cl)cc(OC)n1 — within 0.2 log units, 2.04

Point of comparison: CCCCCCO[N+](=O)[O-], log10 Henry constant (atm·m³/mol) -2.83. Against it:
- Clc1cccc(-c2c(Cl)cc(Cl)cc2Cl)c1 — lower, -3.68
- Clc1ccc(Cl)c(-c2c(Cl)ccc(Cl)c2Cl)c1Cl — lower, -4.06
- ClC=C(Cl)Cl — higher, -2.01
- Cc1ccc(Br)cc1 — higher, -2.63

Point of comparison: Brc1ccccc1Oc1ccccc1, log10 Koa 7.24. Against it:
- Clc1cccc2c(Cl)cccc12 — lower, 6.65
- CCCCCCCCCCCCCCCCO — higher, 9.9
- ClC=C(Cl)Cl — lower, 2.99

Same assay, conditions: fish

Point of comparison: CCCCCCCCCCCCCC, log10 biotransformation half-life (days) 1.49. Against it:
- Clc1ccc(Cl)c(-c2c(Cl)ccc(Cl)c2Cl)c1Cl — higher, 2.34
- ClC=C(Cl)Cl — lower, -0.41
- CC1(C)[C@H](C(=O)OCc2cccc(Oc3ccccc3)c2)[C@@H]1C=C(Cl)Cl (single isomer, unassigned) — lower, 0.37

Point of comparison: CC1(C)[C@H](C(=O)OCc2cccc(Oc3ccccc3)c2)[C@@H]1C=C(Cl)Cl (single isomer, unassigned), log10 BCF 2.65. Against it:
- ClC=C(Cl)Cl — lower, 1.2
